Laboratory results taken from ChEMBL document CHEMBL3046395, “Synthesis and pharmacological investigation of novel 3-(benzyl)-2-substituted amino-3H-quinazolin-4-ones as analgesic and anti-inflammatory agents” (Med Chem Res, 2008).

Key:
Rattus norvegicus [1] = assay: Anti-inflammatory activity in Rattus norvegicus (rat) assessed as inhibition of carrageenan-induced paw edema at 20 mg/kg, po measured at 30 min post carrageenan-challenge (reference value: 5.1 +/- 0.29%); format: functional; settings: 0.5 h
Rattus norvegicus [2] = assay: Anti-inflammatory activity in Rattus norvegicus (rat) assessed as inhibition of carrageenan-induced paw edema at 10 mg/kg, po measured at 30 min post carrageenan-challenge (reference value: 5.1 +/- 0.29%); format: functional; settings: 0.5 h
Mus musculus [3] = assay: Analgesic activity in Mus musculus Wistar albino (mouse) at 20 mg/kg, po after 3 hr by tail-flick test (reference value: 4 +/- 0.91%); format: functional
Mus musculus [4] = assay: Analgesic activity in Mus musculus Wistar albino (mouse) at 10 mg/kg, po after 3 hr by tail-flick test (reference value: 4 +/- 0.91%); format: functional
Mus musculus [5] = assay: Analgesic activity in Mus musculus Wistar albino (mouse) at 20 mg/kg, po after 2 hr by tail-flick test (reference value: 4 +/- 0.59%); format: functional
Mus musculus [6] = assay: Analgesic activity in Mus musculus Wistar albino (mouse) at 10 mg/kg, po after 2 hr by tail-flick test (reference value: 4 +/- 0.59%); format: functional
Mus musculus [7] = assay: Analgesic activity in Mus musculus Wistar albino (mouse) at 20 mg/kg, po after 1 hr by tail-flick test (reference value: 6 +/- 0.49%); format: functional
Mus musculus [8] = assay: Analgesic activity in Mus musculus Wistar albino (mouse) at 10 mg/kg, po after 1 hr by tail-flick test (reference value: 6 +/- 0.49%); format: functional
Mus musculus [9] = assay: Analgesic activity in Mus musculus Wistar albino (mouse) at 20 mg/kg, po after 30 min by tail-flick test (reference value: 2 +/- 0.35%); format: functional
Mus musculus [10] = assay: Analgesic activity in Mus musculus Wistar albino (mouse) at 10 mg/kg, po after 30 min by tail-flick test (reference value: 2 +/- 0.35%); format: functional
Rattus norvegicus [11] = assay: Gastrointestinal toxicity in Rattus norvegicus Wistar albino (rat) assessed as ulcer index at 20 mg/kg, ip administered QD for 3 days measured on day 4 (reference value: 0.15 +/- 0.32); format: organism-based; design: dose 20 mg/kg, route intraperitoneal; settings: in vivo, 72 h
Rattus norvegicus [12] = assay: Anti-inflammatory activity in Rattus norvegicus (rat) assessed as inhibition of carrageenan-induced paw edema at 20 mg/kg, po measured at 3 hr post carrageenan-challenge (reference value: 3.2 +/- 0.93%); format: functional
Rattus norvegicus [13] = assay: Anti-inflammatory activity in Rattus norvegicus (rat) assessed as inhibition of carrageenan-induced paw edema at 10 mg/kg, po measured at 3 hr post carrageenan-challenge (reference value: 3.2 +/- 0.93%); format: functional
Rattus norvegicus [14] = assay: Anti-inflammatory activity in Rattus norvegicus (rat) assessed as inhibition of carrageenan-induced paw edema at 20 mg/kg, po measured at 2 hr post carrageenan-challenge (reference value: 5.7+/- 0.32%); format: functional
Rattus norvegicus [15] = assay: Anti-inflammatory activity in Rattus norvegicus (rat) assessed as inhibition of carrageenan-induced paw edema at 10 mg/kg, po measured at 2 hr post carrageenan-challenge (reference value: 5.7+/- 0.32%); format: functional
Rattus norvegicus [16] = assay: Anti-inflammatory activity in Rattus norvegicus (rat) assessed as inhibition of carrageenan-induced paw edema at 20 mg/kg, po measured at 1 hr post carrageenan-challenge (reference value: 6.1 +/- 0.27%); format: functional
Rattus norvegicus [17] = assay: Anti-inflammatory activity in Rattus norvegicus (rat) assessed as inhibition of carrageenan-induced paw edema at 10 mg/kg, po measured at 1 hr post carrageenan-challenge (reference value: 6.1 +/- 0.27%); format: functional

Row | Structure (SMILES) | inhibition in vivo at 20 mg/kg (Rattus norvegicus [1]) [%] | inhibition in vivo at 10 mg/kg (Rattus norvegicus [2]) [%] | Activity (Mus musculus [3]) [%] | Activity (Mus musculus [4]) [%] | Activity (Mus musculus [5]) [%] | Activity (Mus musculus [6]) [%] | Activity (Mus musculus [7]) [%] | Activity (Mus musculus [8]) [%] | Activity (Mus musculus [9]) [%] | Activity (Mus musculus [10]) [%] | UI (Rattus norvegicus [11]) | inhibition in vivo at 20 mg/kg (Rattus norvegicus [12]) [%] | inhibition in vivo at 10 mg/kg (Rattus norvegicus [13]) [%] | inhibition in vivo at 20 mg/kg (Rattus norvegicus [14]) [%] | inhibition in vivo at 10 mg/kg (Rattus norvegicus [15]) [%] | inhibition in vivo at 20 mg/kg (Rattus norvegicus [16]) [%] | inhibition in vivo at 10 mg/kg (Rattus norvegicus [17]) [%]
1 | Cc1ccccc1/C=N/Nc1nc2ccccc2c(=O)n1Cc1ccccc1 | 45 | 39 | 39 | 32 | 59 | 48 | 58 | 48 | 52 | 44 | 0.66 | 36 | 28 | 51 | 45 | 47 | 42
2 | O=c1c2ccccc2nc(N/N=C/c2ccccc2[N+](=O)[O-])n1Cc1ccccc1 | 43 | 30 | 38 | 32 | 57 | 46 | 56 | 44 | 49 | 37 | 0.87 | 28 | 21 | 47 | 38 | 43 | 36
3 | CCC/C(C)=N/Nc1nc2ccccc2c(=O)n1Cc1ccccc1 | 58 | 47 | 48 | 40 | 79 | 67 | 77 | 60 | 67 | 58 | 0.48 | 39 | 30 | 67 | 53 | 65 | 51
4 | CC/C(C)=N/Nc1nc2ccccc2c(=O)n1Cc1ccccc1 | 50 | 45 | 45 | 35 | 76 | 65 | 73 | 62 | 71 | 59 | 0.53 | 39 | 26 | 60 | 51 | 59 | 48
5 | CCN(CC)C(=S)Nn1c(-c2ccccc2)nc2ccccc2c1=O |  |  |  |  | 58 | 44 |  |  |  |  |  |  |  | 53 | 38 |  | 
6 | O=c1c2ccccc2nc(NN=C(c2ccccc2)c2ccccc2)n1Cc1ccccc1 | 47 | 36 | 41 | 33 | 59 | 49 | 58 | 49 | 55 | 46 | 0.63 | 35 | 27 | 52 | 43 | 50 | 41
7 | O=c1c2ccccc2nc(NN=C2CCCCC2)n1Cc1ccccc1 | 45 | 36 | 41 | 34 | 61 | 54 | 58 | 46 | 51 | 42 | 0.59 | 32 | 25 | 58 | 45 | 52 | 38
8 | O=c1c2ccccc2nc(N/N=C/c2ccc([N+](=O)[O-])cc2)n1Cc1ccccc1 | 42 | 31 | 39 | 34 | 54 | 42 | 48 | 42 | 46 | 38 | 0.82 | 31 | 24 | 49 | 37 | 45 | 31
9 | O=c1c2ccccc2nc(N/N=C/c2ccccc2)n1Cc1ccccc1 | 41 | 35 | 41 | 31 | 59 | 48 | 59 | 48 | 51 | 45 | 0.64 | 35 | 27 | 47 | 40 | 45 | 39
10 | CCN(CC)C(=S)Nn1c(SC)nc2ccccc2c1=O |  |  |  |  | 67 | 56 |  |  |  |  |  |  |  | 62 | 40 |  | 
11 | CC(=O)Oc1ccccc1C(=O)O [ASPIRIN] |  |  |  |  |  |  |  |  |  |  | 1.73 |  |  |  |  |  | 
12 | Cc1nc2ccccc2c(=O)n1NC(=S)n1cccc1 |  |  |  |  | 65 | 50 |  |  |  |  |  |  |  | 60 | 44 |  | 
